Assay results published in patent US11945822B2, “Pyrazolo-triazine and/or pyrazolo-pxrimidine derivatives as selective inhibitor of cyclin dependent kinase” (QURIENT CO., LTD., priority 2018, dated 2024).

The molecules below were run on H460 (assay: Cellular H460 viability assay (CellTiter-Glo, 72 hours)). Conditions: Homo sapiens, NCI-H460.
Assay type: cell-based
Method in brief: (§1)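 Cells plated in 96 wells and exposed to compound 72 h at 37 °C, 5% CO2, final DMSO below 0.1%, DMSO control. Viability by CellTiter-Glo luminescence, duplicate.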

IC50 | Structure (SMILES)
< 1 µM | CC(C)c1cnn2c(NCc3c(Cl)cccc3-n3cc(N4CCNCC4)cn3)nc(N3CCC(N)CC3)nc12 [Compound 193]
< 1 µM | CNC(=O)c1ccc2nc(-c3ccccc3CNc3nc(N4CCC(N)CC4)nc4c(C(C)C)cnn34)cnc2c1 [Compound 153]
1 to 10 µM | CC(C)c1cnn2c(NCc3ccccc3-c3cc4cccc(NC(=O)CCCN(C)C)c4[nH]3)nc(N3CCC(N)CC3)nc12 [Compound 143]
< 1 µM | CNC(=O)c1ccn(-c2cccc(Cl)c2CNc2nc(N3CCC(N)CC3)nc3c(C(C)C)cnn23)n1 [Compound 197]

These molecules were tested on MV4-11 (assay: Cellular MV4-11 viability assay (CellTiter-Glo, 72 hours)). Conditions: Homo sapiens.
Assay type: cell-based
Method in brief: as §1

IC50 | Structure (SMILES)
< 1 µM | CC(C)c1cnn2c(NCc3c(Cl)cccc3-n3cc(N4CCNCC4)cn3)nc(N3CCC(N)CC3)nc12 [Compound 193]
< 1 µM | CNC(=O)c1ccc2nc(-c3ccccc3CNc3nc(N4CCC(N)CC4)nc4c(C(C)C)cnn34)cnc2c1 [Compound 153]
< 1 µM | CC(C)c1cnn2c(NCc3ccccc3-c3cc4cccc(NC(=O)CCCN(C)C)c4[nH]3)nc(N3CCC(N)CC3)nc12 [Compound 143]
< 1 µM | CNC(=O)c1ccn(-c2cccc(Cl)c2CNc2nc(N3CCC(N)CC3)nc3c(C(C)C)cnn23)n1 [Compound 197]

Each molecule was assayed on HCT116 (assay: Cellular HCT116 viability assay (CellTiter-Glo, 72 hours)). Conditions: Homo sapiens, HCT-116.
Assay type: cell-based
Method in brief: as §1

IC50 | Structure (SMILES)
< 1 µM | CC(C)c1cnn2c(NCc3c(Cl)cccc3-n3cc(N4CCNCC4)cn3)nc(N3CCC(N)CC3)nc12 [Compound 193]
< 1 µM | CNC(=O)c1ccc2nc(-c3ccccc3CNc3nc(N4CCC(N)CC4)nc4c(C(C)C)cnn34)cnc2c1 [Compound 153]
< 1 µM | CNC(=O)c1ccn(-c2cccc(Cl)c2CNc2nc(N3CCC(N)CC3)nc3c(C(C)C)cnn23)n1 [Compound 197]

Each molecule was assayed against T1, CDK1/Cyclin B (Homo sapiens, UniProt P06493) (assay: Enzymatic assay for CDK1 (FRET based LANCE Ultra kinase assay)). Conditions: read-out: CDK1 enzymatic activity (IC50 range).
T1 construct: purchased Invitrogen PR4768C
T1 sequence (P06493 whole entry): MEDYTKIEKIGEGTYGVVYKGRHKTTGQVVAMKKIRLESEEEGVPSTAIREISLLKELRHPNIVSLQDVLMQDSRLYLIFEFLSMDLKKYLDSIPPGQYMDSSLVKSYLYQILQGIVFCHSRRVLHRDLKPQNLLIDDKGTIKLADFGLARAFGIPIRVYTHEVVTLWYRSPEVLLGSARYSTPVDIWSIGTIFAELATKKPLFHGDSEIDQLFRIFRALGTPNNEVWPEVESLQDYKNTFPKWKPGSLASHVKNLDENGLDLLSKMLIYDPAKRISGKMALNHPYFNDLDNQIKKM
T1 sequence (P14635 whole entry partner): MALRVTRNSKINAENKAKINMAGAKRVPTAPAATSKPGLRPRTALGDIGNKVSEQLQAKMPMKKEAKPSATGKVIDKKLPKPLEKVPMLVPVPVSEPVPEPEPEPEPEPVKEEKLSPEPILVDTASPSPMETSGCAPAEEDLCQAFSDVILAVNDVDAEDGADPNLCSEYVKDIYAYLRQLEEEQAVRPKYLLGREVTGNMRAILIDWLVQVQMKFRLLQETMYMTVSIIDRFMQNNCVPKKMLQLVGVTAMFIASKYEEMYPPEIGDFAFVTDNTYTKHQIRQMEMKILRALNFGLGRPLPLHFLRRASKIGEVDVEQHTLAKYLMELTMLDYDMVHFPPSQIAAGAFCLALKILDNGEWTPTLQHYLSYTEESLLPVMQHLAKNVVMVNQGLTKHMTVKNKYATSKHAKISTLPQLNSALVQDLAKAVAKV
Assay type: biochemical
Method in brief: (§2)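 LANCE Ultra TR-FRET: ULight-MBP peptide (68 nM) with ATP at Km, […], 60 min at 23° C. EDTA plus Eu-anti-phospho-MBP added, another 60 min, then 665/615 nm emission read. Compounds tested as 8-dose 4-fold DMSO dilutions.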

IC50 | Structure (SMILES)
> 1 µM | CC(C)c1cnn2c(NCc3c(Cl)cccc3-n3cc(N4CCNCC4)cn3)nc(N3CCC(N)CC3)nc12 [Compound 193]
> 1 µM | CNC(=O)c1ccc2nc(-c3ccccc3CNc3nc(N4CCC(N)CC4)nc4c(C(C)C)cnn34)cnc2c1 [Compound 153]
0.1 to 1 µM | CC(C)c1cnn2c(NCc3ccccc3-c3cc4cccc(NC(=O)CCCN(C)C)c4[nH]3)nc(N3CCC(N)CC3)nc12 [Compound 143]
> 1 µM | CNC(=O)c1ccn(-c2cccc(Cl)c2CNc2nc(N3CCC(N)CC3)nc3c(C(C)C)cnn23)n1 [Compound 197]

The molecules below were run on MM.1S (assay: Cellular MM.1S viability assay (CellTiter-Glo, 72 hours)). Conditions: Homo sapiens, MM1.S.
Assay type: cell-based
Excerpt: Human T-cell acute lymphoblastic leukemia cell line, MOLT-4 (ATCC, Cat #CRL-1582), Human multiple myeloma cell line, RPMI-8226 (Invitrogen, Cat #22400-089) and MM.1S (ATCC, Cat #CRL-2974), NSCLC (Non-small cell lung cancer) cell line H460 (ATCC, Cat #HTB-177), Human colon colorectal carcinoma cell line HCT116 (ATCC, Cat #CCL-247), Human acute monocytic leukemia cell line MV4-11 (ATCC, Cat #CRL-9591), OVCAR-3 (ATCC, Cat #HTB-161) and A2780 (ECACC, Cat #93112519) were obtained from ATCC. Cells were grown in RPMI-1640 media (Invitrogen, Cat #22400-089) supplemented with 10% FBS (Invitrogen, Cat #10099141) and 1% penicillin/streptomycin (Invitrogen, Cat #15070063) and cultured at 37° C., 5% CO2 in a humidified chamber. All cell lines were routinely tested for mycoplasma.
The effect of the CDK7 inhibitor to inhibit the growth of target cancer cells was evaluated through the 72 hours time period of viability assay. Briefly, the candidate cell line ware plated in 96 well plate at the following density of cells respectively. 1×10^4 cells/well for MOLT-4, RPMI-8226, MV4-11 and MM.1S, 5×10^3 for H460, HCT116 and OVCAR-3 and IX 10^3 for A2780. After 24 hours, the cells were treated with various concentrations of the compound (ranging from 0.0015 uM to 10 uM). DMSO solvent without compound served as a control and final DMSO concentration less than 0.1%. After 72 hours of incubation at 37° C., 5% CO2 incubator, cells were analyzed for the viability using the CellTiter-Glo Luminescent Cell Viability Assay (Promega, Cat #G7570). All viability assays were performed in duplicate and Luminescence was read using an Envision (Perkin Elmer, USA). Data was analyzed using XLfit software.

IC50 | Structure (SMILES)
≤ 1 µM | CC(C)c1cnn2c(NCc3c(Cl)cccc3-n3cc(N4CCNCC4)cn3)nc(N3CCC(N)CC3)nc12 [Compound 193]
≤ 1 µM | CNC(=O)c1ccc2nc(-c3ccccc3CNc3nc(N4CCC(N)CC4)nc4c(C(C)C)cnn34)cnc2c1 [Compound 153]
≤ 1 µM | CC(C)c1cnn2c(NCc3ccccc3-c3cc4cccc(NC(=O)CCCN(C)C)c4[nH]3)nc(N3CCC(N)CC3)nc12 [Compound 143]
≤ 1 µM | CNC(=O)c1ccn(-c2cccc(Cl)c2CNc2nc(N3CCC(N)CC3)nc3c(C(C)C)cnn23)n1 [Compound 197]

Each molecule was assayed against T2, CDK2/Cyclin A (Homo sapiens, UniProt P24941) (assay: Enzymatic assay for CDK2 (FRET based LANCE Ultra kinase assay)). Conditions: read-out: CDK2 enzymatic activity (IC50 range).
T2 construct: purchased Invitrogen PV6290
Assay type: biochemical
Method in brief: as §2

IC50 | Structure (SMILES)
> 1 µM | CC(C)c1cnn2c(NCc3c(Cl)cccc3-n3cc(N4CCNCC4)cn3)nc(N3CCC(N)CC3)nc12 [Compound 193]
> 1 µM | CNC(=O)c1ccc2nc(-c3ccccc3CNc3nc(N4CCC(N)CC4)nc4c(C(C)C)cnn34)cnc2c1 [Compound 153]
0.1 to 1 µM | CC(C)c1cnn2c(NCc3ccccc3-c3cc4cccc(NC(=O)CCCN(C)C)c4[nH]3)nc(N3CCC(N)CC3)nc12 [Compound 143]
> 1 µM | CNC(=O)c1ccn(-c2cccc(Cl)c2CNc2nc(N3CCC(N)CC3)nc3c(C(C)C)cnn23)n1 [Compound 197]

These molecules were tested against T3, CDK7/Cyclin H/MNAT1 (Homo sapiens, UniProt P50613) (assay: Enzymatic assay for CDK7 (FRET based LANCE Ultra kinase assay)). Conditions: CDK7 over CDK1.
T3 construct: purchased Invitrogen PR6749B
T3 sequence (P50613 whole entry): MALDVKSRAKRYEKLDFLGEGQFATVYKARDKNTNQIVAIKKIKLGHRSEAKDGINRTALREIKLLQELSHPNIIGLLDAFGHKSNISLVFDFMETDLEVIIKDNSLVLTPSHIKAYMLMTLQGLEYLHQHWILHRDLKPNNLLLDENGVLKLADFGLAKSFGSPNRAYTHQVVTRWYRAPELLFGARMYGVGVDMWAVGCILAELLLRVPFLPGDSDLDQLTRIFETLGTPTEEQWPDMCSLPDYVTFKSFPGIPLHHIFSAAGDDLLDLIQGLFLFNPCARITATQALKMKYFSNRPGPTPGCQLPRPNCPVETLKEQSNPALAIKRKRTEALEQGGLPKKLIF
T3 sequence (P51946 whole entry partner): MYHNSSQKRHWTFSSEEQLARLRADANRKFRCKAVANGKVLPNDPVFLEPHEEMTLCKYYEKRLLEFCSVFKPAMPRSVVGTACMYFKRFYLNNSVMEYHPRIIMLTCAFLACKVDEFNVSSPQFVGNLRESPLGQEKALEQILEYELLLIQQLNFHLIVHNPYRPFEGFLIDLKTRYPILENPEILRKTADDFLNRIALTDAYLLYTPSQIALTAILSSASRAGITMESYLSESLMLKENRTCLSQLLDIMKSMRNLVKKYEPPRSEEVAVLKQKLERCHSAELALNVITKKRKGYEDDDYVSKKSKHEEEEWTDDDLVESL
T3 sequence (P51948 whole entry partner): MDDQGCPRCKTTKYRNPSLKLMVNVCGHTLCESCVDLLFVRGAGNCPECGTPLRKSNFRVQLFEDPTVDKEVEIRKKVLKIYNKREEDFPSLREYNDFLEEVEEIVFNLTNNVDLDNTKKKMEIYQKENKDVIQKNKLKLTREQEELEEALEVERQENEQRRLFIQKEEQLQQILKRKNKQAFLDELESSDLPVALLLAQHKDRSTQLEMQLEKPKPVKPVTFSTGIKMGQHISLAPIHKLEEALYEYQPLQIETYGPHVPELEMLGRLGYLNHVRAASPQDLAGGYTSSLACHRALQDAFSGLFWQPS
Assay type: biochemical
Method in brief: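 LANCE Ultra TR-FRET kinase assay using a ULight-labeled peptide substrate and a Eu-labeled anti-phospho antibody, with ATP at its Km. Purified CDK/cyclin complex was added to compound after brief centrifugation.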

CDK1/CDK7: Selectivity of CDK7 inhibition over CDK1 inhibition | Structure (SMILES)
A (A=greater than 200 fold) | CC(C)c1cnn2c(NCc3c(Cl)cccc3-n3cc(N4CCNCC4)cn3)nc(N3CCC(N)CC3)nc12 [Compound 193]
A (A=greater than 200 fold) | CNC(=O)c1ccc2nc(-c3ccccc3CNc3nc(N4CCC(N)CC4)nc4c(C(C)C)cnn34)cnc2c1 [Compound 153]
A (A=greater than 200 fold) | CNC(=O)c1ccn(-c2cccc(Cl)c2CNc2nc(N3CCC(N)CC3)nc3c(C(C)C)cnn23)n1 [Compound 197]

Structure (SMILES) | CDK1/CDK7: Selectivity of CDK7 inhibition over CDK1 inhibition
CC(C)c1cnn2c(NCc3ccccc3-c3cc4cccc(NC(=O)CCCN(C)C)c4[nH]3)nc(N3CCC(N)CC3)nc12 [Compound 143] | B (B=less than 200 fold, but greater than 20 fold)

Same assay, conditions: CDK7 over CDK2

CDK2/CDK7: Selectivity of CDK7 inhibition over CDK2 inhibition | Structure (SMILES)
A (A=greater than 200 fold) | CC(C)c1cnn2c(NCc3c(Cl)cccc3-n3cc(N4CCNCC4)cn3)nc(N3CCC(N)CC3)nc12 [Compound 193]
A (A=greater than 200 fold) | CNC(=O)c1ccc2nc(-c3ccccc3CNc3nc(N4CCC(N)CC4)nc4c(C(C)C)cnn34)cnc2c1 [Compound 153]
A (A=greater than 200 fold) | CNC(=O)c1ccn(-c2cccc(Cl)c2CNc2nc(N3CCC(N)CC3)nc3c(C(C)C)cnn23)n1 [Compound 197]

Structure (SMILES) | CDK2/CDK7: Selectivity of CDK7 inhibition over CDK2 inhibition
CC(C)c1cnn2c(NCc3ccccc3-c3cc4cccc(NC(=O)CCCN(C)C)c4[nH]3)nc(N3CCC(N)CC3)nc12 [Compound 143] | B (B=less than 200 fold, but greater than 20 fold)

Same assay, conditions: CDK7 over CDK5

Structure (SMILES) | CDK5/CDK7: Selectivity of CDK7 inhibition over CDK5 inhibition
CC(C)c1cnn2c(NCc3c(Cl)cccc3-n3cc(N4CCNCC4)cn3)nc(N3CCC(N)CC3)nc12 [Compound 193] | B (B=less than 200 fold, but greater than 20 fold)
CNC(=O)c1ccc2nc(-c3ccccc3CNc3nc(N4CCC(N)CC4)nc4c(C(C)C)cnn34)cnc2c1 [Compound 153] | B (B=less than 200 fold, but greater than 20 fold)
CC(C)c1cnn2c(NCc3ccccc3-c3cc4cccc(NC(=O)CCCN(C)C)c4[nH]3)nc(N3CCC(N)CC3)nc12 [Compound 143] | C (C=less than 20 fold)
CNC(=O)c1ccn(-c2cccc(Cl)c2CNc2nc(N3CCC(N)CC3)nc3c(C(C)C)cnn23)n1 [Compound 197] | B (B=less than 200 fold, but greater than 20 fold)

Same assay, conditions: read-out: CDK7 enzymatic activity (IC50 range)

IC50 | Structure (SMILES)
< 0.1 µM | CC(C)c1cnn2c(NCc3c(Cl)cccc3-n3cc(N4CCNCC4)cn3)nc(N3CCC(N)CC3)nc12 [Compound 193]
< 0.1 µM | CNC(=O)c1ccc2nc(-c3ccccc3CNc3nc(N4CCC(N)CC4)nc4c(C(C)C)cnn34)cnc2c1 [Compound 153]
< 0.1 µM | CC(C)c1cnn2c(NCc3ccccc3-c3cc4cccc(NC(=O)CCCN(C)C)c4[nH]3)nc(N3CCC(N)CC3)nc12 [Compound 143]
< 0.1 µM | CNC(=O)c1ccn(-c2cccc(Cl)c2CNc2nc(N3CCC(N)CC3)nc3c(C(C)C)cnn23)n1 [Compound 197]

Each molecule was assayed against T4, CDK5/p25 (Homo sapiens, UniProt Q00535) (assay: Enzymatic assay for CDK5 (FRET based LANCE Ultra kinase assay)). Conditions: read-out: CDK5 enzymatic activity (IC50 range).
T4 construct: purchased Invitrogen PR8543B
T4 sequence (Q00535 whole entry): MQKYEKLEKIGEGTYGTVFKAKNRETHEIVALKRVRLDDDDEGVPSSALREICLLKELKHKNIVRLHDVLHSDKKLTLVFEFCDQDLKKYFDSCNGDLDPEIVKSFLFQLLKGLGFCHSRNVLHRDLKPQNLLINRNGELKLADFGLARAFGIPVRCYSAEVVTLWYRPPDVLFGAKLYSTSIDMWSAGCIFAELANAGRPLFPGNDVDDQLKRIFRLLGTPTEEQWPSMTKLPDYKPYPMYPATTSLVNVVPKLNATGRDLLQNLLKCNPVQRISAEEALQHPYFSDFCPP
T4 sequence (Q15078 99-307 partner limits assumed): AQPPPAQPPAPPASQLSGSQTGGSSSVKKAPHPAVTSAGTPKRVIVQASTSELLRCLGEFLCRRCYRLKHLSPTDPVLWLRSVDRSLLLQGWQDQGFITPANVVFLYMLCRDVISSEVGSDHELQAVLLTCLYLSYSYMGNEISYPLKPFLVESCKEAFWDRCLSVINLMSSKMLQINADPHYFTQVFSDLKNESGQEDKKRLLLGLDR
Assay type: biochemical
Method in brief: as §2

IC50 | Structure (SMILES)
0.1 to 1 µM | CC(C)c1cnn2c(NCc3c(Cl)cccc3-n3cc(N4CCNCC4)cn3)nc(N3CCC(N)CC3)nc12 [Compound 193]
0.1 to 1 µM | CNC(=O)c1ccc2nc(-c3ccccc3CNc3nc(N4CCC(N)CC4)nc4c(C(C)C)cnn34)cnc2c1 [Compound 153]
< 0.1 µM | CC(C)c1cnn2c(NCc3ccccc3-c3cc4cccc(NC(=O)CCCN(C)C)c4[nH]3)nc(N3CCC(N)CC3)nc12 [Compound 143]
0.1 to 1 µM | CNC(=O)c1ccn(-c2cccc(Cl)c2CNc2nc(N3CCC(N)CC3)nc3c(C(C)C)cnn23)n1 [Compound 197]

These molecules were tested on RPMI-8226 (assay: Cellular RPMI-8226 viability assay (CellTiter-Glo, 72 hours)). Conditions: Homo sapiens.
Assay type: cell-based
Method in brief: as §1

IC50 | Structure (SMILES)
1 to 10 µM | CC(C)c1cnn2c(NCc3ccccc3-c3cc4cccc(NC(=O)CCCN(C)C)c4[nH]3)nc(N3CCC(N)CC3)nc12 [Compound 143]
